We go through 8 compounds from PMC7530112 (European journal of medicinal chemistry, 2020).

Values joined by “and” are separate entries in the source; they are usually repeats but may differ in a detail not shown here. Equal entries are not always repeated. Where two headings read alike, the source gives them in different places.

In one series the test system is HIV-1NL4-3. The series is described as follows: Anti-HIV-1 assay in TZM-GFP cells. The following applies: for Inhibition% at 2 μM: 2 μM compound; for Inhibition% at 20 μM: 20 μM compound.
For series [1] the following is noted: human, microsomes.
The conditions of series [2]: mouse, microsomes.
A short description of series [3]: Microsomal stability assay, human liver microsomes. As to conditions: without Cobi; for Phase I metabolic stability t1/2, HLM: 1 μM compound, 0.5 mg/mL microsomal protein, NADPH. (Microsomes from liver hold many membrane-bound enzymes, among them those of drug oxidation.)
Series [4] can be described thus: Microsomal stability assay, mouse liver microsomes. The following applies: without Cobi, 1 μM compound, 0.5 mg/mL microsomal protein, NADPH.
For series [5] the following is noted: HLMs; cited from earlier work.

Regarding `CN(C(=O)[C@H](Cc1ccccc1)NC(=O)Cc1ccc2ccccc2c1)c1ccc(Cl)cc1` [Compound 27, (S)-N-(4-Chlorophenyl)-N-methyl-2-(2-(naphthalen-2-yl)acetamido)-3-phenylpropanamide], in the series with HIV-1NL4-3, the “Inhibition% at 2 μM” value was 95% and the “Inhibition% at 20 μM” value is 100%. Also, in series [1], the “Phase I metabolic stability t1/2, HLM” value is 2.7 min. In addition, in series [2], the “Phase I metabolic stability t1/2, MLM” value was 1.4 min.
For `CN(C(=O)C(Cc1ccccc1)NC(=O)CN1C(=O)NC2(CCCCC2)C1=O)c1ccc(Cl)cc1` (stereo not shown) [Compound 50, N-(4-Chlorophenyl)-2-(2-(2,4-dioxo-1,3-diazaspiro[4.5]decan-3-yl)acetamido)-N-methyl-3-phenylpropanamide], the “Inhibition% at 20 μM” value with HIV-1NL4-3 was “−/96%”. Further, the “Phase I metabolic stability t1/2, HLM” value in series [1] was 2.5 min. For the same compound, in series [2], the “Phase I metabolic stability t1/2, MLM” value was determined as 1.1 min.
For the compound “(2S)-N-(3-Chlorophenyl)-2-(2-(4,7-dimethyl-2-oxoindolin-3-yl)acetamido)-N-methyl-3-phenylpropanamide [Compound 24]”, the “Phase I metabolic stability t1/2, HLM” value in series [1] turned out to be 6.7 min. The “fold improved half-life over PF74 in HLMs” value in series [3] is 7 to 10 fold and 10 fold. The “Phase I metabolic stability t1/2, MLM” value in series [2] worked out at 1.4 min.
As to “(S)-2-(2-(1,3-Dimethyl-2,6-dioxo-1,2,3,6-tetrahydro-7H-purin-7-yl)acetamido)-N-methyl-N,3-diphenylpropanamide [Compound 37]”, in the series with HIV-1NL4-3, the “Inhibition% at 2 μM” value turned out to be 10% and the “Inhibition% at 20 μM” value was found to be 94%. In series [4], the “Phase I metabolic stability t1/2, MLM” value is recorded as 1.2 min. Further, in series [3], the “fold improved half-life over PF74 in HLMs” value fell in the range of 7 to 10 fold and the “Phase I metabolic stability t1/2, HLM” value worked out at 4.7 min.
With “(S)-N-(4-Chlorophenyl)-N-methyl-2-(2-(naphthalen-1-yl)acetamido)-3-phenylpropanamide [Compound 33]”, in the series with HIV-1NL4-3, the “Inhibition% at 2 μM” value amounted to 98% and the “Inhibition% at 20 μM” value is given as 100%. The “Phase I metabolic stability t1/2, HLM” value in series [1] came to 1.1 min. In addition, the “Phase I metabolic stability t1/2, MLM” value in series [2] is 0.6 min.
With “(S)-N-Methyl-2-(2-(2-methyl-1H-indol-3-yl)acetamido)-N,3-diphenylpropanamide [PF74, reference compound]”, in the series on HIV-1NL4-3, the “Inhibition% at 2 μM” value came to 91% and the “Inhibition% at 20 μM” value came to 98%. In series [5], the “half-life (t1/2) in human liver microsomes” value is “less than 1 min”. Also, the “Phase I metabolic stability t1/2, MLM” value in series [2] turned out to be 0.6 min.
Turning to “(S)-N-Methyl-2-(2-(naphthalen-1-yl)acetamido)-N,3-diphenylpropanamide [Compound 31]”, in the series on HIV-1NL4-3, the “Inhibition% at 2 μM” value is given as 66% and the “Inhibition% at 20 μM” value is listed as 100%. In series [4], the “Phase I metabolic stability t1/2, MLM” value came to 0.5 min. In addition, the “Phase I metabolic stability t1/2, HLM” value in series [3] stood at 0.6 min.
For “(S)-N-Methyl-2-(2-(naphthalen-2-yl)acetamido)-N,3-diphenylpropanamide [Compound 25]”, in the series with HIV-1NL4-3, the “Inhibition% at 2 μM” value is on record as 40% and the “Inhibition% at 20 μM” value came to 98%. The “Phase I metabolic stability t1/2, MLM” value in series [4] came to 0.5 min. In addition, in series [3], the “Phase I metabolic stability t1/2, HLM” value was 1.8 min.
